Counter-ions that a name gives are not always drawn.

The target in this assay is T1, TLR7/NFKb HEK cells (Homo sapiens, UniProt Q9NYK1).
T1 construct: expressed in transfected cells; host or cells: HEK cells (TLR7/NFKb reporter line)
T1 sequence (Q9NYK1 27-1049): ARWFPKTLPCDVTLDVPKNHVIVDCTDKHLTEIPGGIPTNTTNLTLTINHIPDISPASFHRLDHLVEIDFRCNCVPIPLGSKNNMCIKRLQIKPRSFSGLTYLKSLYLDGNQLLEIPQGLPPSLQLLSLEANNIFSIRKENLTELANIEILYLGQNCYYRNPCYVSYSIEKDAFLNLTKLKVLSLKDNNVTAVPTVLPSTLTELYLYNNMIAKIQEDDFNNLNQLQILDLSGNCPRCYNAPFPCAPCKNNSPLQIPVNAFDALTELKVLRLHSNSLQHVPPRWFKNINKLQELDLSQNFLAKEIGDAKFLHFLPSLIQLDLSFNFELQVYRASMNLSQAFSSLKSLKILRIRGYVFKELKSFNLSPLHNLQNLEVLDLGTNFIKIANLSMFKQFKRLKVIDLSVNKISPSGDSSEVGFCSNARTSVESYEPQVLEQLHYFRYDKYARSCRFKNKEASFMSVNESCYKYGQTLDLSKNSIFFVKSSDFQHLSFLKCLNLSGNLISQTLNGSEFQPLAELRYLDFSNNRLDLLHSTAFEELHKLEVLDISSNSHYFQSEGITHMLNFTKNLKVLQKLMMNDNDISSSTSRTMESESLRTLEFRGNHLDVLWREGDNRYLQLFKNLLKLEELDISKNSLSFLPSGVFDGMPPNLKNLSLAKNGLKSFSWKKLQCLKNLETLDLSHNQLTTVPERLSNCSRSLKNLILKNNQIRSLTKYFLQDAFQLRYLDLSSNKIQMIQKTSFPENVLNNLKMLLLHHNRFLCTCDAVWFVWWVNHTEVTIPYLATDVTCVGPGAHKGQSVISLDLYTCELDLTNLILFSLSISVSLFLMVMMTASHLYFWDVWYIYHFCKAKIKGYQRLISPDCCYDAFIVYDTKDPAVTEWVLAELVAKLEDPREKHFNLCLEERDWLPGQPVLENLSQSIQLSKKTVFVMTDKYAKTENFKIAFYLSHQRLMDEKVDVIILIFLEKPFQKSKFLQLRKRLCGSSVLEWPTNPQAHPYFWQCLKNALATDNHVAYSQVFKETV
Put plainly: HEK Cell Assay (TLR7/NFKb reporter, Steady-Glo luciferase readout). The assay is classed as cell-based. Conditions: 30 min compound preincubation, then R*48 agonist for 5 hours, read-out: Potency. In a few lines: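 Steady-Glo luminescence after 5 h stimulation with R*48 agonist, following 30 min compound preincubation. Assay run in HEK cells carrying a TLR7/NFKb luciferase reporter, plated at 5000 cells/well and grown 24 h at 37° C (10% CO2) before treatment.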
Regarding `CC(C(=O)N[C@@H]1C[C@H](C)CN(c2ccc(C#N)c3nccnc23)C1)N1CC(F)(F)C1` (stereo partly drawn) [Compound 273, N-[(3R,5S)-1-(8-cyanoquinoxalin-5-yl)-5-methylpiperidin-3-yl]-2-(3,3-difluoroazetidin-1-yl)propanamide], the IC50 fell in the range of 1000 to 10000 nM.

For `C[C@H]1C[C@@H](NC(=O)CN(C)C)CN(c2ccc(C#N)c3nccnc23)C1` [Compound 32, N-((3R,5S)-1-(8-cyanoquinoxalin-5-yl)-5-methylpiperidin-3-yl)-2-(dimethylamino)acetamide], the IC50 was < 1000 nM.

Regarding `COc1ccc(N2C[C@@H](C)C[C@@H](NC(=O)C(N)C(F)(F)F)C2)c2cccnc12` (single isomer, unassigned) [Compound 191], the IC50 lay in the range of 1000 to 10000 nM.

As for `C[C@H]1C[C@@H](NCC#N)CN(c2ccc(C#N)c3nccnc23)C1` [Compound 38, 8-((3R,5S)-3-(cyanomethylamino)-5-methylpiperidin-1-yl)quinoxaline-5-carbonitrile], the IC50 is < 1000 nM.

As to `CCC(C)C(=O)N[C@@H]1C[C@H](C)CN(c2ccnc3nccnc23)C1` (single isomer, unassigned) [Compound 156], the IC50 is > 10000 nM.

Regarding `CCN(CC)CCNC(=O)C1CCN(c2ccnc3nccnc23)CC1` [Compound 379], the IC50 fell in the range of 1000 to 10000 nM.

For the molecule `C[C@H]1C[C@@H](NC(=O)CC2CCN(C)CC2)CN(c2ccc(C(F)(F)F)c3nccnc23)C1` [Compound 253, N-[(3R,5S)-5-methyl-1-[8-(trifluoromethyl)quinoxalin-5-yl]piperidin-3-yl]-2-(1-methylpiperidin-4-yl)acetamide], the IC50 was < 1000 nM.

For `FC(F)(F)CCN[C@H]1C[C@@H](C(F)(F)F)CN(c2ccnc3nccnc23)C1` (relative stereo) [Compound 96, cis-1-[pyrido[2,3-b]pyrazin-8-yl]-5-(trifluoromethyl)-N-(3,3,3-trifluoropropyl)piperidin-3-amine hydrochloride], the IC50 was > 10000 nM.

For the molecule `CN(C)CCNC(=O)C1CCN(c2ccc(C#N)c3ncccc23)CC1` [Compound 415, 1-(8-Cyano-quinolin-5-yl)-piperidine-4-carboxylic Acid (2-dimethylamino-ethyl)-amide], the IC50 was < 1000 nM.

`N#Cc1ccc(N2CC(NC(=O)CCC(=O)N3CCC3)CC(C(F)(F)F)C2)c2cccnc12` (single isomer, unassigned) [Compound 495]: the IC50 fell in the range of 1000 to 10000 nM.

Turning to `C[C@H]1C[C@@H](NC2CCN(C)C2=O)CN(c2ccc(C(F)(F)F)c3nccnc23)C1` (single isomer, unassigned) [Compound 352], the IC50 was < 1000 nM.

As for `C[C@H]1C[C@@H](NC(=O)CC(C)(C)CN)CN(c2ccc(C(F)(F)F)c3nccnc23)C1` [Compound 301, 4-amino-3,3-dimethyl-N-[(3R,5S)-5-methyl-1-[8-(trifluoromethyl)quinoxalin-5-yl]piperidin-3-yl]butanamide], the IC50 is < 1000 nM.

Consider `N#Cc1ccc(N2CC(N)CC(C(F)(F)F)C2)c2cccnc12` (single isomer, unassigned) [Compound 72], for which the IC50 is < 1000 nM.

Turning to `N#Cc1ccc(N2CC(NC(=O)C(N)C(F)(F)F)CC(C3CC3)C2)c2nccnc12` (single isomer, unassigned) [Compound 177], the IC50 lay within 1000 to 10000 nM.

Regarding `C[C@H]1C[C@@H](NC(=O)C(C)(C)N2CCCCC2)CN(c2ccc(C(F)(F)F)c3ncccc23)C1` [Compound 572], the IC50 is < 1000 nM.

On to `CC(CN(C)C)NC(=O)C1CCN(c2ccc(C#N)c3ncccc23)CC1` (stereo not drawn) [Compound 420, 1-(8-Cyano-quinolin-5-yl)-piperidine-4-carboxylic Acid (2-dimethylamino-1-methyl-ethyl)-amide], for which the IC50 was < 1000 nM.

As to `C[C@H]1C[C@@H](NC2CCN(C)C2=O)CN(c2ccc(C(F)(F)F)c3nccnc23)C1` (single isomer, unassigned) [Compound 353], the IC50 was < 1000 nM.

Regarding `C[C@@H]1CN(c2ccnc3nccnc23)C[C@H](CN2CCC(N3CCCCC3)CC2)O1` [Compound 58, (2S,6R)-2-(1,4′-bipiperidin-1′-ylmethyl)-6-methyl-4-(pyrido[2,3-b]pyrazin-8-yl)morpholine], the IC50 is < 1000 nM.

Take `C[C@H]1C[C@@H](NC(=O)CN2CC(O)C2)CN(c2ccc(C(F)F)c3nccnc23)C1` [Compound 320, N-[(3R,5S)-1-[8-(difluoromethyl)quinoxalin-5-yl]-5-methylpiperidin-3-yl]-2-(3-hydroxyazetidin-1-yl)acetamide]: the IC50 fell in the range of 1000 to 10000 nM.

As to `C[C@H]1C[C@@H](N)CN(c2ccc(Cl)c3ncccc23)C1` [Compound 78, (3R,5S)-1-(8-chloroquinolin-5-yl)-5-methylpiperidin-3-amine], the IC50 was < 1000 nM.

Consider `CN(C)CC(=O)NC1CN(c2ccc(C#N)c3ncccc23)CC(F)(F)C1` (stereo not drawn) [Compound 425, N-[1-(8-Cyano-quinolin-5-yl)-5,5-difluoro-piperidin-3-yl]-2-dimethylamino-acetamide], for which the IC50 is < 1000 nM.

Turning to `C[C@H]1C[C@@H](NC(=O)CC2(O)CCCCC2)CN(c2ccc(C(F)(F)F)c3ncccc23)C1` [Compound 484, 2-(1-Hydroxy-cyclohexyl)-N-[(3R,5S)-5-methyl-1-(8-trifluoromethyl-quinolin-5-yl)-piperidin-3-yl]-acetamide], the IC50 was < 1000 nM.

Take `CC(C)[C@H](O)C(=O)N[C@@H]1C[C@H](C)CN(c2ccc(C(F)F)c3ncccc23)C1` [Compound 204, (2S)—N-[(3R,5S)-1-[8-(difluoromethyl)quinolin-5-yl]-5-methylpiperidin-3-yl]-2-hydroxy-3-methylbutanamide]: the IC50 was < 1000 nM.

On to `C[C@H]1C[C@@H](NC(C)(C)CO)CN(c2ccc(C(F)(F)F)c3nccnc23)C1` [Compound 252, 2-methyl-2-[[(3R,5S)-5-methyl-1-[8-(trifluoromethyl)quinoxalin-5-yl]piperidin-3-yl]amino]propan-1-ol], for which the IC50 lay in the range of 1000 to 10000 nM.

Regarding `N#Cc1ccc(N2C[C@H](NC(=O)N3C[C@@H](F)[C@@H](F)C3)C[C@H](C(F)(F)F)C2)c2cccnc12` [Compound 581, (3R,4S)-3,4-Difluoro-pyrrolidine-1-carboxylic Acid [(3R,5S)-1-(8-cyano-quinolin-5-yl)-5-trifluoromethyl-piperidin-3-yl]-amide], the IC50 is 1000 to 10000 nM.

Regarding `C[C@H]1C[C@@H](NC(=O)CC2CCN(C)CC2)CN(c2ccc(C(F)(F)F)c3ncccc23)C1` [Compound 244, N-[(3R,5S)-5-methyl-1-[8-(trifluoromethyl)quinolin-5-yl]piperidin-3-yl]-2-(1-methylpiperidin-4-yl)acetamide], the IC50 was < 1000 nM.

Take `C[C@H]1C[C@@H](N)CN(c2ccc(O)c3ncccc23)C1` [Compound 200, 5-[(3R,5S)-3-amino-5-methylpiperidin-1-yl]quinolin-8-ol hydrochloride]: the IC50 is < 1000 nM.

Turning to `N#Cc1ccc(N2C[C@@H](N)C[C@@H](F)C2)c2nccnc12` [Compound 501, 8-((3S,5R)-3-Amino-5-fluoro-piperidin-1-yl)-quinoxaline-5-carbonitrile hydrochloride], the IC50 is > 10000 nM.

As to `Fc1ccc2nccc(N3CCC(CNCCN4CCCCC4)CC3)c2c1` [Compound 378, [1-(6-Fluoro-quinolin-4-yl)-piperidin-4-ylmethyl]-(2-piperidin-1-yl-ethyl)-amine], the IC50 lay in the range of 1000 to 10000 nM.

As for `C[C@@H]1CN(c2ccnc3nccnc23)C[C@H](CN2CCN(C)[C@@H](C)C2)O1` [Compound 53, (2S,6R)-2-(((S)-3,4-dimethylpiperazin-1-yl)methyl)-6-methyl-4-(pyrido[2,3-b]pyrazin-8-yl)morpholine], the IC50 was < 1000 nM.

Consider `C[C@H]1C[C@@H](NC(=O)C(N)C(F)(F)F)CN(c2ccnc3nccnc23)C1` (single isomer, unassigned) [Compound 114, hydrochloride], for which the IC50 was > 10000 nM.

Take `C[C@H]1C[C@@H](NC(=O)C(N)C(F)(F)F)CN(c2ccc(C#N)c3nccnc23)C1` (single isomer, unassigned) [Compound 113, hydrochloride]: the IC50 was < 1000 nM.

Regarding `C[C@H]1C[C@@H](NC(=O)NCC2CC(F)(F)C2)CN(c2ccc(C(F)(F)F)c3ncccc23)C1` [Compound 582, 1-(3,3-Difluoro-cyclobutylmethyl)-3-[(3R,5S)-5-methyl-1-(8-trifluoromethyl-quinolin-5-yl)-piperidin-3-yl]-urea], the IC50 lay within 1000 to 10000 nM.

(Values after patent US10947213B1 (Merck Patent GmbH, priority 2015, dated 2021).)
